The record followed here is ChEMBL document CHEMBL1201862, “PubChem BioAssay data set” (2004).

Some test systems named below: IGROV-1; SK-MEL-28; U-251; SR; NCI-H226; K562; ACHN; SK-OV-3; HT-29; OVCAR-3; RPMI-8226; NCI-H23; MDA-MB-435; HOP-62; A549; COLO 205; M14; HCT-15; LOX IMVI; BT-549.
What all share (experiment): growth of human tumour cells (NCI), 48 h

Molecules are shown by their SMILES.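 Interpolation was linear, between the two tested concentrations surrounding the appropriate level; five concentrations were tested over 48 hours in 96-well plates. GI50 marks 50% less growth.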 Calls of active or inactive are those of the source. Cut-off read from the data, not from the text of the source: active = GI50 up to about 1.1 µM and inactive = higher.

`CO/N=C\c1ccc2c(c1)Sc1ccccc1O2`: the GI50 in the experiment with IGROV-1 was 62.4 µM (inactive); in the experiment on SK-MEL-28, > 100 µM (inactive); in the experiment with U-251, 54.5 µM (inactive); with SR it was 23.4 µM (inactive); with NCI-H226 it was > 100 µM (inactive); in the experiment on K562 it was 51.8 µM (inactive). The GI50 with ACHN was > 100 µM (inactive); with SK-OV-3, > 100 µM (inactive); in the experiment on HT-29, 33.1 µM (inactive); in the experiment on OVCAR-3, > 100 µM (inactive); with RPMI-8226, 55.7 µM (inactive); in the experiment on NCI-H23 it was 63 µM (inactive). In addition, the GI50 is 29.9 µM (inactive) with MDA-MB-435; > 100 µM (inactive) with HOP-62; 44.8 µM (inactive) with A549; 66.4 µM (inactive) with COLO 205; 30.5 µM (inactive) in the experiment with M14; 28.5 µM with HCT-15. In addition, the GI50 in the experiment on LOX IMVI was 53.5 µM (inactive).

As to `CCOC(=O)c1c(-c2ccc(OC)cc2)c(C#N)c(=S)n(C2OC(CO)C(O)C(O)C2O)c1C` (stereo unspecified), the GI50 with IGROV-1, with SK-MEL-28, in the experiment with U-251, with SR, in the experiment on NCI-H226 and in the experiment on K562 was > 100 µM (inactive) throughout. In addition, the GI50 in the experiment with SK-OV-3, in the experiment with HT-29, in the experiment on OVCAR-3, in the experiment with NCI-H23, in the experiment on MDA-MB-435 and with HOP-62 was > 100 µM (inactive) throughout. The GI50 is > 100 µM (inactive) in the experiment with A549; > 100 µM (inactive) in the experiment on COLO 205; > 100 µM (inactive) with M14; over 100 µM in the experiment on HCT-15; > 100 µM (inactive) in the experiment on LOX IMVI.

Consider `O=C(CSCC(=O)N/N=C/c1cc(I)cc(I)c1O)N/N=C/c1cc(I)cc(I)c1O`, for which the GI50 with IGROV-1 is 8.28 µM (inactive); in the experiment on SK-MEL-28, 18.9 µM (inactive); in the experiment on U-251 it was 6.61 µM (inactive); with SR, 3.54 µM (inactive); in the experiment on NCI-H226, 7.91 µM (inactive); with K562 it was 11.1 µM (inactive). Besides, the GI50 with ACHN was 11.9 µM (inactive); in the experiment with SK-OV-3 it was 10.8 µM (inactive); with HT-29 it was 32.9 µM (inactive); with OVCAR-3, 27 µM (inactive); with RPMI-8226, 26.5 µM (inactive); in the experiment with NCI-H23, 11.6 µM (inactive). Further, the GI50 in the experiment with MDA-MB-435 is 25.4 µM (inactive); in the experiment with HOP-62 it was 9.27 µM (inactive); in the experiment with A549, 27.4 µM (inactive); in the experiment with COLO 205, 23.1 µM (inactive); in the experiment on M14, 17.8 µM (inactive); in the experiment on HCT-15, 17.9 µM.

In the case of `c1ccc(C2CC(N3CCOCC3)=Nc3ccccc3N2)cc1` (stereo unspecified), the GI50 in the experiment on IGROV-1 was 93.8 µM (inactive); in the experiment with SK-MEL-28, > 100 µM (inactive); in the experiment on U-251 it was > 100 µM (inactive); in the experiment with NCI-H226, > 100 µM (inactive); in the experiment on K562 it was 58.2 µM (inactive); in the experiment on ACHN it was > 100 µM (inactive). Further, the GI50 with SK-OV-3 was > 100 µM (inactive); in the experiment with HT-29 it was > 100 µM (inactive); in the experiment on OVCAR-3 it was > 100 µM (inactive); in the experiment on RPMI-8226 it was 43.9 µM (inactive); with BT-549 it was > 100 µM (inactive); in the experiment with NCI-H23 it was > 100 µM (inactive). Moreover, the GI50 with MDA-MB-435 is 54.3 µM (inactive); with HOP-62, > 100 µM (inactive); in the experiment with A549, > 100 µM (inactive); in the experiment on COLO 205 it was > 100 µM (inactive); in the experiment on M14 it was > 100 µM (inactive); with HCT-15 it was over 100 µM.

With `Cc1csc2c1C(=O)c1ccsc1C2=O`, the GI50 in the experiment on IGROV-1 was 3.24 µM (inactive); in the experiment with SK-MEL-28, 1.53 µM (inactive); in the experiment with U-251, 3.4 µM (inactive); with SR it was 4.15 µM (inactive); with NCI-H226 it was 11 µM (inactive); with K562, 2.85 µM (inactive). Moreover, the GI50 in the experiment with ACHN was 2.98 µM (inactive); in the experiment with SK-OV-3, 20.4 µM (inactive); in the experiment on HT-29, 2.65 µM (inactive); with OVCAR-3 it was 2.07 µM (inactive); in the experiment on RPMI-8226, 3.61 µM (inactive); with NCI-H23, 1.16 µM (inactive). The GI50 with MDA-MB-435 is 0.215 µM (active); in the experiment with A549, 1.72 µM (inactive); with COLO 205, 12.2 µM (inactive); in the experiment on M14, 0.778 µM (active); in the experiment on HCT-15 it was 1.49 µM; in the experiment on LOX IMVI, 1.26 µM (inactive).

Consider `O=C1/C(=C/c2ccccc2)N=C2Sc3c([nH]cnc3=O)N12`, for which the GI50 in the experiment on IGROV-1 is > 100 µM (inactive); in the experiment with SK-MEL-28 it was > 100 µM (inactive); in the experiment with U-251, > 100 µM (inactive); with SR it was 25.1 µM (inactive); in the experiment on NCI-H226, 78.2 µM (inactive); in the experiment with K562, 28.2 µM (inactive). In addition, the GI50 in the experiment on ACHN, with SK-OV-3, in the experiment on HT-29, in the experiment with OVCAR-3, with RPMI-8226 and in the experiment on NCI-H23 was > 100 µM (inactive) throughout. The GI50 in the experiment on MDA-MB-435 is 60 µM (inactive); with HOP-62, > 100 µM (inactive); with A549 it was > 100 µM (inactive); with COLO 205 it was > 100 µM (inactive); in the experiment on M14, > 100 µM (inactive); in the experiment with HCT-15 it was 68.9 µM. Besides, the GI50 in the experiment on LOX IMVI is > 100 µM (inactive).

For `CN(C)c1cccc2c(S(=O)(=O)NCCN)cccc12` [DANSYL ETHYLENEDIAMINE], the GI50 in the experiment with IGROV-1 is 33.7 µM (inactive); with SK-MEL-28, > 100 µM (inactive); in the experiment on U-251 it was > 100 µM (inactive); in the experiment with SR it was > 100 µM (inactive); with NCI-H226, > 100 µM (inactive); with K562, > 100 µM (inactive). The GI50 in the experiment on ACHN, in the experiment with SK-OV-3, with HT-29, in the experiment on OVCAR-3, with NCI-H23 and in the experiment with MDA-MB-435 was > 100 µM (inactive) in each case. The GI50 with HOP-62 was > 100 µM (inactive); with A549, > 100 µM (inactive); with COLO 205, > 100 µM (inactive); with M14, > 100 µM (inactive); with HCT-15 it was over 100 µM; with LOX IMVI, > 100 µM (inactive).

Consider `O=C(N/N=C(COc1ccccc1Cl)\N=C\c1ccncc1)c1ccncc1`, for which the GI50 with IGROV-1, with SK-MEL-28, in the experiment on U-251, in the experiment on K562, with ACHN and in the experiment on SK-OV-3 was > 100 µM (inactive) in each case. Further, the GI50 with HT-29, with OVCAR-3, with RPMI-8226, in the experiment on BT-549, in the experiment on NCI-H23 and in the experiment on MDA-MB-435 was > 100 µM (inactive) throughout. Moreover, the GI50 is > 100 µM (inactive) with HOP-62; > 100 µM (inactive) in the experiment on A549; > 100 µM (inactive) in the experiment on COLO 205; > 100 µM (inactive) in the experiment with M14; over 100 µM with HCT-15; > 100 µM (inactive) with LOX IMVI.

For `COc1ccc(/C=C2\CCC(C)/C(=C\c3ccc(OC)c(OC)c3)C2=O)cc1OC` (stereo unspecified), the GI50 in the experiment on IGROV-1 is 2.88 µM (inactive); in the experiment with SK-MEL-28, 10.7 µM (inactive); in the experiment with U-251, 5.43 µM (inactive); in the experiment on NCI-H226 it was 4.65 µM (inactive); in the experiment with K562, 3.36 µM (inactive); with ACHN, 4.79 µM (inactive). For the same compound, the GI50 is 9.2 µM (inactive) in the experiment on SK-OV-3; 4.38 µM (inactive) in the experiment on HT-29; 13.6 µM (inactive) in the experiment with OVCAR-3; 2.51 µM (inactive) with RPMI-8226; 4.6 µM (inactive) with BT-549; 3.94 µM (inactive) with NCI-H23. In addition, the GI50 in the experiment on MDA-MB-435 was 3.76 µM (inactive); in the experiment with COLO 205 it was 8.39 µM (inactive); with M14, 5.38 µM (inactive); with HCT-15 it was 5.37 µM; with LOX IMVI, 4.33 µM (inactive).

For `O=CNNC(=O)Nc1ccc(Cl)cc1`, the GI50 is > 100 µM (inactive) with IGROV-1; > 100 µM (inactive) with SK-MEL-28; > 100 µM (inactive) in the experiment with U-251; > 100 µM (inactive) with SR; 31.1 µM (inactive) in the experiment with NCI-H226; > 100 µM (inactive) with K562. Besides, the GI50 in the experiment on ACHN, in the experiment on SK-OV-3, in the experiment with HT-29, in the experiment on RPMI-8226, in the experiment with NCI-H23 and with MDA-MB-435 was > 100 µM (inactive) in each case. The GI50 in the experiment with HOP-62 was > 100 µM (inactive); with A549, > 100 µM (inactive); in the experiment on COLO 205, > 100 µM (inactive); with M14, > 100 µM (inactive); with HCT-15, over 100 µM.

For the compound `CSc1nc2c(N)ncnc2n1C`, the GI50 in the experiment with IGROV-1, in the experiment with SK-MEL-28, with U-251, in the experiment on NCI-H226, in the experiment on K562 and in the experiment with ACHN was > 100 µM (inactive) each time. Besides, the GI50 in the experiment on SK-OV-3, with HT-29, with OVCAR-3, in the experiment on RPMI-8226, in the experiment on MDA-MB-435 and in the experiment on HOP-62 was > 100 µM (inactive) in each case. Also, the GI50 was > 100 µM (inactive) in the experiment with A549; > 100 µM (inactive) in the experiment on COLO 205; > 100 µM (inactive) with M14; over 100 µM in the experiment on HCT-15; > 100 µM (inactive) in the experiment with LOX IMVI.
